Literature values in patent US20240398979A1, “Compositions and Methods for Treating Dopamine Disorders” (METAQOR LLC, priority 2020, published 2024).

B1: brain-derived neurotrophic factor (protein, UniProt P23560 19-247, looked up)
Neurotrophic factor BDNF …: APMKEANIRGQGGLAYPGVRTHGTLESVNGPKAGSRGLTSLADTFEHVIEELLDEDQKVRPNEENNKDADLYTSRVMLSSQVPLEPPLLFLLEEYKNYLDAANMSMRVRRHSDPARRGELSVCDSISEWVTAADKKTAVDMSGGTVTVLEKVPVSKGQLKQYFYETKCNPMGYTKEGCRGIDKRHWNSQCRTTQSYVRALTMDSKKRIGWRFIRIDTSCVCTLTIKRGR
notes: neurotrophin

Tested on: not given
Details: not given

| Molecule | in vivo half-life [min] |
| --- | --- |
| B1 | < 5 |

Tested on: methamphetamine use disorder
Details: randomized controlled trials / meta-analyses

| Molecule | benefit in treatment of MUD |
| --- | --- |
| CC1(C)O[C@@H]2[C@@H](CO[C@@]3(COS(N)(=O)=O)OC(C)(C)O[C@@H]23)O1 [Topiramate] | insufficient evidence of benefit for reducing MUD |
| O=C1CCc2ccc(OCCCCN3CCN(c4cccc(Cl)c4Cl)CC3)cc2N1 [aripiprazole] | insufficient evidence of benefit for reducing MUD |
| CNCC[C@@H](Oc1ccccc1C)c1ccccc1 [atomoxetine] | insufficient evidence of benefit for reducing MUD |
| NCC(CC(=O)O)c1ccc(Cl)cc1 (stereo not shown) [baclofen] | insufficient evidence of benefit for reducing MUD |
| CC(NC(C)(C)C)C(=O)c1cccc(Cl)c1 (stereo not shown) [bupropion] | not effective |
| NCC1(CC(=O)O)CCCCC1 [gabapentin] | insufficient evidence of benefit for reducing MUD |
| COC(=O)C(c1ccccc1)C1CCCCN1 (stereo not shown) [methylphenidate] | low-strength evidence that methylphenidate may reduce METH use |
| CN1CCN2c3ncccc3Cc3ccccc3C2C1 (stereo not shown) [mirtazapine] | not effective |
| O=C1CC[C@@]2(O)[C@H]3Cc4ccc(O)c5c4[C@@]2(CCN3CC2CC2)[C@H]1O5 [naltrexone] | insufficient evidence of benefit for reducing MUD |
| Cc1nccn1CC1CCc2c(c3ccccc3n2C)C1=O (stereo not shown) [ondansetron] | No effects |
| CN[C@H]1CC[C@@H](c2ccc(Cl)c(Cl)c2)c2ccccc21 [sertraline] | not effective |
| c1cnc2cc3c(cc2n1)[C@@H]1CNC[C@H]3C1 [varenicline] | insufficient evidence of benefit for reducing MUD |
